Source: ChEMBL document CHEMBL1154993, “A cyclohexanonyl bromophenol from the red alga Symphyocladia latiuscula” (J Nat Prod, 2000)

Tested on: Radical scavenging activity
Assay: Antioxidant activity assessed as DPPH radical scavenging activity after 30 mins by spectrophotometer
Format: functional

| IC50 | Structure (SMILES) |
| --- | --- |
| 7.5 µM | OCc1c(Br)c(O)c(O)c(Br)c1Br |
| 15.3 µM | O=C1O[C@H]([C@@H](O)CO)C(O)=C1O [ASCORBIC ACID] |
| 8.5 µM | O=C1CCCC[C@@H]1Cc1c(Br)c(O)c(O)c(Br)c1Br [SYMPHYOKETONE] |
